Publication doi:10.1101/202341v1, “A cell-free synthetic biochemistry platform for raspberry ketone production” (biorxiv, 2017)

What was measured:
CurA [1] = target: T1, CurA (Escherichia coli, UniProt P76113); assay: ligand fluorescence in one-pot enzymatic synthesis; type: binding; settings: 25 uM CurA without NADPH; BDMC formed in situ by TAL, PCL, MatB and CUS
T1 construct: N-terminal His6-tag; expressed in E. coli BL21 Gold (DE3) pLysS; apo form
T1 sequence (P76113 1-345): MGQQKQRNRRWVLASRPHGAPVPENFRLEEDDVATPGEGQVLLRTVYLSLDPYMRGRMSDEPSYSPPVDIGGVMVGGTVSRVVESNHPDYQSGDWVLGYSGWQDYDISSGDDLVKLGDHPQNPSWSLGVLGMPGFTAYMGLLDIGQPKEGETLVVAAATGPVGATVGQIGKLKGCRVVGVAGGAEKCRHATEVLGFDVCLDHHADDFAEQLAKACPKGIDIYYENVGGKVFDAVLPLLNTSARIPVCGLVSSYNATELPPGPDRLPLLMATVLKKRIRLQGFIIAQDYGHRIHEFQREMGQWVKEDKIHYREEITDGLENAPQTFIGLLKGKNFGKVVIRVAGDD

CurA [2] = target: T1, CurA; assay: ligand fluorescence (excitation […] nm, emission […] nm); type: binding; settings: apo-CurA without NADPH; titration 0-100 uM curcumin with 25 uM CurA; also reduced as substrate when NADPH is added
TAL = target: T2, TAL (Rhodotorula glutinis, UniProt U5TV35); assay: individual enzyme activity assay; type: biochemical
T2 construct: synthetic gene codon optimised for E. coli; expressed in E. coli BL21-Gold (DE3)
T2 sequence (U5TV35 1-693): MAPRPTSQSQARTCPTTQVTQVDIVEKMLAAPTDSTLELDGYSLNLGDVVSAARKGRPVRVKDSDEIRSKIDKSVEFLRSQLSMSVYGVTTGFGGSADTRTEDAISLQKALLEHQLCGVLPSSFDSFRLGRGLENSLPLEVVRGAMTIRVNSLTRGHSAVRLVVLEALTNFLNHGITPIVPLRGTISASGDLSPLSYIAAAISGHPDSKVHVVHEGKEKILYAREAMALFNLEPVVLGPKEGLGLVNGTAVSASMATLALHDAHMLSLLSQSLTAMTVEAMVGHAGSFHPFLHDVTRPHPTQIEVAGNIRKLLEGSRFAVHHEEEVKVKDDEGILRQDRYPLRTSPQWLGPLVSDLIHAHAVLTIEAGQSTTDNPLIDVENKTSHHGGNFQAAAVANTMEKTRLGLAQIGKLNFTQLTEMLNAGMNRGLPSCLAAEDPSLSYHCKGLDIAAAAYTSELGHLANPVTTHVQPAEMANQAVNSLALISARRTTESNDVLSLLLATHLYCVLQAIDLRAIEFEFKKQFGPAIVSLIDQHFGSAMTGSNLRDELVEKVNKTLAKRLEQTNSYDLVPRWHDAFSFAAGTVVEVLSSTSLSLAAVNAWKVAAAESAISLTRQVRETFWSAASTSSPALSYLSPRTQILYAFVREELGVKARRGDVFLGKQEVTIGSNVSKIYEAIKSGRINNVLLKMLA

## O=C(/C=C/c1ccc(O)cc1)CC(=O)/C=C/c1ccc(O)cc1 [BDMC]
CurA [1]
  ligand fluorescence in one-pot enzymatic synthesis: used in the absence of NADPH to bind to BDMC/curcumin

## COc1cc(/C=C/C(=O)CC(=O)/C=C/c2ccc(O)c(OC)c2)ccc1O [curcumin]
CurA [2]
  ligand fluorescence (excitation 425 nm, emission 520 nm): CurA could bind curcumin in the absence of NADPH

## N[C@@H](Cc1ccc(O)cc1)C(=O)O [tyrosine]
TAL
  individual enzyme activity assay: The activity of TAL and PCL enzymes was also assayed individually
